Measurements from US4255183A, “Substituted phenyl urea and herbicides for use in paddy field” (Hokko Chemical Industry Co., Ltd., priority 1977, dated 1981).

Columns and labels:
[1] = test system: Echinochloa crus-galli var. oryzicola; experiment: Test Example 1: pot test on selectivity, inhibition of Echinochloa crus-galli var. oryzicola; assay type: in vivo; settings: dry weight 30 days after treatment
Protocol: (§1) In a Wagner pot of 1/500 are, paddy field soil (alluvial soil) was placed and 50 seeds of Echinochloa crus-galli var. oryzicola and 30 seeds of paddy rice were seeded in the surface layer of said soil and the submerging depth was kept at about 1 cm. When Echinochloa crus-galli var. oryzicola reached at the one leaf stage and 5-leaf stage, the emulsion of a predetermined concentration, prepared according to Example 4 was added dropwise. After 30 days from the treatment with the chemical, dry weights of Echinochloa crus-galli var. oryzicola and paddy rice were measured and the inhibition rate was calculated with reference to untreated area. [formula]
(§2) The comparative chemicals used, i.e. DCMU and Linuron, were those commercially available, and the comparative chemicals A and B used were prepared according to the process for formulating the compound of this invention.

[2] = test system: paddy rice; experiment: Test Example 1: pot test on selectivity, inhibition of paddy rice; assay type: in vivo; settings: dry weight 30 days after treatment
Protocol: In a Wagner pot of 1/500 are, paddy field soil (alluvial soil) was placed and 50 seeds of Echinochloa crus-galli var. oryzicola and 30 seeds of paddy rice were seeded in the surface layer of said soil and the submerging depth was kept at about 1 cm. […] After 30 days from the treatment with the chemical, dry weights of Echinochloa crus-galli var. oryzicola and paddy rice were measured and the inhibition rate was calculated with reference to untreated area. [formula]
as §2

[3] = test system: Echinochloa crus-galli var. oryzicola; experiment: Test Example 2: concrete pot test on killing effect, Echinochloa crus-galli var. oryzicola; assay type: in vivo; settings: granule, 30 days after treatment
Protocol: as §1
(§3) In a concrete pot of 1/400 are (50 cm×50 cm), paddy field soil (alluvial soil) was placed and 200 seeds of Echinochloa crus-galli var. oryzicola were seeded in 10 surface layer of said soil and the soil was submerged at about 3 cm depth. Before emergence of Echinochloa crus-galli var. oryzicola, paddy rice at 2.5-leaf stage (Asahi species) was transplanted at the rate of 8 stubs per pot, planting 3 seedlings per stub. At the one-leaf stage (3.5 leaves stage of paddy rice) and 5 leaves stage (7 leaves stage of paddy rice) of Echinochloa crus-galli var. oryzicola, the granule prepared according to Example 1 was applied. […] 30 Days after the treatment with the chemical, examination was made in the similar manner as Test Example 1 to obtain results as shown in Table 2.
(§4) In the table, as the comparative chemicals CPN, Benthiocarb, Molinate and Simetryne, those commercially available were used and the comparative chemicals A and B (as mentioned before) used were prepared according to the process for preparing the compound of this invention.

[4] = test system: paddy rice; experiment: whole plant or invertebrate; assay type: in vivo, paddy rice (Asahi species); settings: granule, 30 days; for Inhibition (%) by treatment at 1-leaf stage of E. crus-galli var. oryzicola, paddy rice: rice at 3.5 leaves stage; for Inhibition (%) by treatment at 5-leaf stage of E. crus-galli var. oryzicola, paddy rice: rice at 7 leaves stage
Protocol: as §1, §3, §4

## CNC(=O)Nc1ccc(OCC=C(C)Cl)cc1 [Comparative chemical B]
[1]; 75 g/10 are
  Inhibition (%) by treatment at 1-leaf stage, E. crus-galli var. oryzicola: 10%
  Inhibition (%) by treatment at 5-leaf stage, E. crus-galli var. oryzicola: 0%
[1]; 150 g/10 are
  Inhibition (%) by treatment at 1-leaf stage, E. crus-galli var. oryzicola: 35%
  Inhibition (%) by treatment at 5-leaf stage, E. crus-galli var. oryzicola: 0%
[1]; 300 g/10 are
  Inhibition (%) by treatment at 1-leaf stage, E. crus-galli var. oryzicola: 80%
  Inhibition (%) by treatment at 5-leaf stage, E. crus-galli var. oryzicola: 7%
[1]; 600 g/10 are
  Inhibition (%) by treatment at 1-leaf stage, E. crus-galli var. oryzicola: 100%
  Inhibition (%) by treatment at 5-leaf stage, E. crus-galli var. oryzicola: 12%
[1]; 900 g/10 are
  Inhibition (%) by treatment at 1-leaf stage, E. crus-galli var. oryzicola: 100%
  Inhibition (%) by treatment at 5-leaf stage, E. crus-galli var. oryzicola: 36%
[2]; 75 g/10 are
  Inhibition (%) by treatment at 1-leaf stage, paddy rice: 0%
  Inhibition (%) by treatment at 5-leaf stage, paddy rice: 0%
[2]; 150 g/10 are
  Inhibition (%) by treatment at 1-leaf stage, paddy rice: 0%
  Inhibition (%) by treatment at 5-leaf stage, paddy rice: 0%
[2]; 300 g/10 are
  Inhibition (%) by treatment at 1-leaf stage, paddy rice: 36%
  Inhibition (%) by treatment at 5-leaf stage, paddy rice: 0%
[2]; 600 g/10 are
  Inhibition (%) by treatment at 1-leaf stage, paddy rice: 60%
  Inhibition (%) by treatment at 5-leaf stage, paddy rice: 7%
[2]; 900 g/10 are
  Inhibition (%) by treatment at 1-leaf stage, paddy rice: 72%
  Inhibition (%) by treatment at 5-leaf stage, paddy rice: 26%
[3]; 100 g/10 are
  Inhibition (%) by treatment at 1-leaf stage of E. crus-galli var. oryzicola, E. crus-galli var. oryzicola: 20%
  Inhibition (%) by treatment at 5-leaf stage of E. crus-galli var. oryzicola, E. crus-galli var. oryzicola: 0%
[3]; 300 g/10 are
  Inhibition (%) by treatment at 1-leaf stage of E. crus-galli var. oryzicola, E. crus-galli var. oryzicola: 75%
  Inhibition (%) by treatment at 5-leaf stage of E. crus-galli var. oryzicola, E. crus-galli var. oryzicola: 0%
[3]; 900 g/10 are
  Inhibition (%) by treatment at 1-leaf stage of E. crus-galli var. oryzicola, E. crus-galli var. oryzicola: 100%
  Inhibition (%) by treatment at 5-leaf stage of E. crus-galli var. oryzicola, E. crus-galli var. oryzicola: 30%
[4]; 100 g/10 are
  Inhibition (%) by treatment at 1-leaf stage of E. crus-galli var. oryzicola, paddy rice: 0%
  Inhibition (%) by treatment at 5-leaf stage of E. crus-galli var. oryzicola, paddy rice: 0%
[4]; 300 g/10 are
  Inhibition (%) by treatment at 1-leaf stage of E. crus-galli var. oryzicola, paddy rice: 0%
  Inhibition (%) by treatment at 5-leaf stage of E. crus-galli var. oryzicola, paddy rice: 0%
[4]; 900 g/10 are
  Inhibition (%) by treatment at 1-leaf stage of E. crus-galli var. oryzicola, paddy rice: 40%
  Inhibition (%) by treatment at 5-leaf stage of E. crus-galli var. oryzicola, paddy rice: 7%
